According to US12502434B2, “Compound comprising EZH2 inhibitor and E3 ligase binder and pharmaceutical composition for preventing or treating EZH2-associated disease comprising same as active ingredient” (DAEGU-GYEONGBUK MEDICAL INNOVATION FOUNDATION, priority 2019, dated 2025):
Read-outs that look alike come from different tables or passages of the source.

Biological target: T1, EZH2 protein in LS174T cells (Homo sapiens, UniProt Q15910)
T1 construct: endogenous in cells; host or cells: LS174T
T1 sequence (Q15910 whole entry): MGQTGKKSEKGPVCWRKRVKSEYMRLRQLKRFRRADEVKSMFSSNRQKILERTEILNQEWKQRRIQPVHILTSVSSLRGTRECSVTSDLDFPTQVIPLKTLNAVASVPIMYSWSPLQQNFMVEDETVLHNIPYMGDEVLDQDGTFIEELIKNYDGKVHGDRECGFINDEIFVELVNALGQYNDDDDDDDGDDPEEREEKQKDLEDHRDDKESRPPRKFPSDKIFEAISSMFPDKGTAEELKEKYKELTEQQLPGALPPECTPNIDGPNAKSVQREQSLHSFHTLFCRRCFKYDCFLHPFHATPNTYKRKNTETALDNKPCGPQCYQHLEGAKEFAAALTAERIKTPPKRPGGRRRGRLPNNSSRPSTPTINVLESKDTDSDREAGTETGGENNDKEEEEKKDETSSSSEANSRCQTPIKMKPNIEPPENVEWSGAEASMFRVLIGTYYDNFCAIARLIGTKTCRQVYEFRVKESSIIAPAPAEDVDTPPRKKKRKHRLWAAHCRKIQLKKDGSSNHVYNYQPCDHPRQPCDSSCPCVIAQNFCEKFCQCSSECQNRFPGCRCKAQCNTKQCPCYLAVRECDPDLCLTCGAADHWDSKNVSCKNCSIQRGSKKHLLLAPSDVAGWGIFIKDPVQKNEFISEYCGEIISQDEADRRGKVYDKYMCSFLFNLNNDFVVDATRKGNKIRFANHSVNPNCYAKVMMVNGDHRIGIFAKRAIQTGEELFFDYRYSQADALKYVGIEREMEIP
T1 sequence (O75530 whole entry partner): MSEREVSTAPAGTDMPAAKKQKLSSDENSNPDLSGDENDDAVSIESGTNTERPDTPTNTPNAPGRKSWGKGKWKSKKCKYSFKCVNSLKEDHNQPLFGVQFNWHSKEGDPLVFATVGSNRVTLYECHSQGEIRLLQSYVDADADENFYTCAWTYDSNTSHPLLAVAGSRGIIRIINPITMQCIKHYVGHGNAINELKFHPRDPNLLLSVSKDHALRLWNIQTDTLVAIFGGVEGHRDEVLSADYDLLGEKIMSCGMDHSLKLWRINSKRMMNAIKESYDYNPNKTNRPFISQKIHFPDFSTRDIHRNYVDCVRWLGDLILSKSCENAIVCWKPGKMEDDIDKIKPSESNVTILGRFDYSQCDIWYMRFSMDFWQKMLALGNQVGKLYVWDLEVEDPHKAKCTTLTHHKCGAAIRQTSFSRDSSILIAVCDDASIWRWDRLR
T1 sequence (Q15022 whole entry partner): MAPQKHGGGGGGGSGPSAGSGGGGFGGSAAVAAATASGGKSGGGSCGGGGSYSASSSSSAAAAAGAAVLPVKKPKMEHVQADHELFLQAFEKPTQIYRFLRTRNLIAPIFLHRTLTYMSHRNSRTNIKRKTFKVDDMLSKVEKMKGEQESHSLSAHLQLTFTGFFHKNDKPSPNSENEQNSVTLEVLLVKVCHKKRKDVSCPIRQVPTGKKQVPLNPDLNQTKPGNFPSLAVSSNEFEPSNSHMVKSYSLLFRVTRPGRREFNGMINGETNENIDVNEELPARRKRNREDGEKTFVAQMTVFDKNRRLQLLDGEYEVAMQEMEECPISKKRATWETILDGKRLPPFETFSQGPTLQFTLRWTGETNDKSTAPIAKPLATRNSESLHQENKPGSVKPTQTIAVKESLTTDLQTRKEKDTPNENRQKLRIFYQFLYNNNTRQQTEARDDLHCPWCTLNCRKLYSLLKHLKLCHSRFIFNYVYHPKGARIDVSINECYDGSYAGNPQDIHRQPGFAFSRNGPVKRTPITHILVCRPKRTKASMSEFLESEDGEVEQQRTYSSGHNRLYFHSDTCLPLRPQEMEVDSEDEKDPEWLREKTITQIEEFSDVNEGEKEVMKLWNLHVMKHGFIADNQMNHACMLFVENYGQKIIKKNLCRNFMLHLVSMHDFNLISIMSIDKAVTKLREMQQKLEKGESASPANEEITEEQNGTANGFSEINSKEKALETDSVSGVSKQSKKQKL
Assay: Proteolytic effect in colorectal cancer cells (Western blotting)
Assay type: cell-based
Method: After 72 hours of the treatment, the cells were collected and lysed using RIPA buffer (50 mM Tris, pH 7.5, 150 mM NaCl, 1% Triton X-100, 0.1% SDS, […], 0.5% deoxycholate, and protease inhibitor cocktail), followed by sonication (30 sec on/30 sec off, 5 cycles) to prepare a cell lysate.

[1] = EZH2 protein, LS174T cells, 1 μM, 72 hours
[2] = EZH2 protein, LS174T cells, 1 uM, 72 hours, Western blotting

Structure (SMILES) | Grade (percent value of the protein degradation when treated with 1 μM) [1] | %, degradation at 1 uM [2] | effect of degrading EZH2 protein when treated to colorectal cancer cells (in words) (LS174T cells) | %, degradation at 1 uM | Grade (percent value of the protein degradation when treated with 1 μM)
CCN(c1cc(-c2ccc(CN3CCN(CC(=O)N4CCC5(CCN(CCCC(=O)N[C@H](C(=O)N6C[C@H](O)C[C@H]6C(=O)NCc6ccc(-c7scnc7C)cc6)C(C)(C)C)CC5)CC4)CC3)cc2)cc(C(=O)NCc2c(C)cc(C)[nH]c2=O)c1C)C1CCOCC1 [Example 45, (2S,4R)-1-((S)-2-(4-(9-(2-(4-((3′-(((4,6-dimethyl-2-oxo-1,2-dihydropyridine-3-yl)methyl)carbamoyl)-5′-(ethyl(tetrahydro-2H-pyran-4-yl)amino)-4′-methyl-[1,1′-biphenyl]-4-yl)methyl)piperazine-1-yl)acetyl)-3,9-diazaspiro[5.5]undecane-3-yl)butanamido)-3,3-dimethylbutanoyl)-4-hydroxy-N-(4-(4-methylthiazole-5-yl)benzyl)pyrrolidine-2-carboxamide] | A (>75%) | 76.02% | excellent effects | – | –
CCN(c1cc(-c2ccc(CN3CCN(CC(=O)N4CC5(CN(CCCCNc6cccc7c6C(=O)N(C6CCC(=O)NC6=O)C7=O)C5)C4)CC3)cc2)cc(C(=O)NCc2c(C)cc(C)[nH]c2=O)c1C)C1CCOCC1 (centres unmarked) [Example 35, N-((4,6-dimethyl-2-oxo-1,2-dihydropyridine-3-yl)methyl)-4′-((4-(2-(6-(4-((2-(2,6-dioxopiperidine-3-yl)-1,3-dioxoisoindoline-4-yl)amino)butyl)-2,6-diazaspiro[3.3]heptane-2-yl)-2-oxoethyl)piperazine-1-yl)methyl)-5-(ethyl(tetrahydro-2H-pyran-4-yl)amino)-4-methyl-[1,1′-biphenyl]-3-carboxamide] | D (<25%) | 0% | – | – | –
CCN(c1cc(-c2ccc(CN3CCN(CC(=O)NCCCCCOCCCOCC(=O)Nc4cccc5c4CN(C4CCC(=O)NC4=O)C5=O)CC3)cc2)cc(C(=O)NCc2c(C)cc(C)[nH]c2=O)c1C)C1CCOCC1 (centres unmarked) [Example 27, N-((4,6-dimethyl-2-oxo-1,2-dihydropyridine-3-yl)methyl)-4′-((4-(2-((5-(3-(2-((2-(2,6-dioxopiperidine-3-yl)-1-oxoisoindoline-4-yl)amino)-2-oxoethoxy)propoxy)pentyl)amino)-2-oxoethyl)piperazine-1-yl)methyl)-5-(ethyl(tetrahydro-2H-pyran-4-yl)amino)-4-methyl-[1,1′-biphenyl]-3-carboxamide] | D (<25%) | 2.27% | – | – | –
CCN(c1cc(-c2ccc(CN3CCN(CC(=O)NCCCCCCNC(=O)[C@H](CC(C)C)NC(=O)[C@@H](O)[C@H](N)Cc4ccccc4)CC3)cc2)cc(C(=O)NCc2c(C)cc(C)[nH]c2=O)c1C)C1CCOCC1 [Example 50, 4′-((4-(2-((6-((S)-2-((2S,3R)-3-amino-2-hydroxy-4-phenylbutanamido)-4-methylpentanamido)hexyl)amino)-2-oxoethyl)piperazine-1-yl)methyl)-N-((4,6-dimethyl-2-oxo-1,2-dihydropyridine-3-yl)methyl)-5-(ethyl(tetrahydro-2H-pyran-4-yl)amino)-4-methyl-[1,1′-biphenyl]-3-carboxamide] | – | – | – | 0% | D (key: A: >75%; B: 50-75%; C: 25-50%; D: <25%)
CCN(c1cc(-c2ccc(CN3CCN(CC(=O)NCCCCCC(=O)N[C@H](C(=O)N4C[C@H](O)C[C@H]4C(=O)NCc4ccc(-c5scnc5C)cc4)C(C)(C)C)CC3)cc2)cc(C(=O)NCc2c(C)cc(C)[nH]c2=O)c1C)C1CCOCC1 [Example 41, (2S,4R)-1-((S)-2-(6-(2-(4-((3′-(((4,6-dimethyl-2-oxo-1,2-dihydropyridine-3-yl)methyl)carbamoyl)-5′-(ethyl(tetrahydro-2H-pyran-4-yl)amino)-4′-methyl-[1,1′-biphenyl]-4-yl)methyl)piperazine-1-yl)acetamido)hexanamido)-3,3-dimethylbutanoyl)-4-hydroxy-N-(4-(4-methylthiazole-5-yl)benzyl)pyrrolidine-2-carboxamide] | D (<25%) | 8.36% | – | – | –
